This is an account of results in PubChem BioAssay AID463229 (Broad Institute, 2010).

“And” between values parts separate entries of the source, which are not always exact repeats. Equal entries are not always repeated. The source made the active and inactive calls.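 Rule for the calls: active = compounds raising the signal whose fitted half-maximal concentration is at or below their top tested dose (cut at about 25 µM in these data); inconclusive = flat fit at 30 to 70% activity, or a poor fit; inactive = the rest.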

This assay relates to INS-1E rat beta cells, no cytokines, CellTiter-Glo ATP, 48 h. The assay can be described thus: cytokine-free beta-cell viability effect – INS-1E rat cells, ATP luminescence, cherry pick, counter-screen for beta-cell apoptosis protection project, dose response (AID 463229).
One may read the AC50 as the concentration at which the activity in the assay is half-maximal. As to `Cc1sc2ncnc(NCc3cccs3)c2c1C`, the AC50 is 6.4 µM.

Turning to `COc1cc([N+](=O)[O-])ccc1NC(=O)CC1SC(=Nc2ccc(F)cc2)N(CCC2=CCCCC2)C1=O` (stereo unspecified), the AC50 is 4.23 µM.

Regarding `Cc1ccc2nc(-c3ccccn3)c(NC3CCCC3)n2c1`, the AC50 is 16.6 µM.

Regarding `CCN(CC)CCCNC1=C(Cl)C(=O)c2ccccc2C1=O`, the concentration at half-maximal activity (AC50) was 13.1 µM.

With `C(=N\Nc1ncnc2sc3c(c12)CCC3)/c1cccs1`, the AC50 is 9.08 µM.

On to `Cc1cc(S(=O)(=O)NCc2ccncc2)c(C)cc1Br`, for which the AC50 is 6.19 µM.

Take `Cc1ccc(NC2=C/C(=N\S(=O)(=O)c3cccs3)c3ccccc3C2=O)c(C)c1`: the AC50 was 1.88 µM.

Consider `COc1ccc(Nc2nc(N3CCCCC3)c3ccccc3n2)cc1`, for which the AC50 was 12 µM.

Consider `CCOC(=O)c1ccc(NC(=O)Cn2cnc3cc(C)c(C)cc32)cc1`, for which the half-maximal activity concentration (AC50) was 5.23 µM.

With `Cc1ccc(C)n1-c1ccc(C(=O)Nc2ccccc2)cc1`, the AC50 was > 26 µM (inactive).

Consider `CCCCCCCCCn1c2c(c(=N)c3c1CCC3)CCC2`, for which the AC50 was less than 0.195 µM.

Take `COc1ccc(NS(=O)(=O)c2ccc(N3CCCCC3)c(N)c2)cc1`: the AC50 was 4.75 µM.

Regarding `C/C(=N\NC(=O)c1nnn(-c2nonc2N)c1CN(C)c1ccccc1)c1ccccc1O`, the AC50 is 9.18 µM.

For `Cc1ccc(C(=O)C[n+]2cc(-c3ccc(C)cc3)n3c2CCCCC3)cc1`, the AC50 was 1.4 µM.

As for `NC1=NC[C@@H](CC2CCCCC2)N1CCc1cc(C(F)(F)F)cc(C(F)(F)F)c1`, the AC50 is 9.46 µM.

Take `Cc1ccc(OCCN2CCN(c3ncnc4sc(C)c(C)c34)CC2)cc1`: the concentration at half-maximal activity (AC50) was 4.03 µM.

`CCN1C/C(=C/c2cccc([N+](=O)[O-])c2)C(=O)/C(=C/c2cccc([N+](=O)[O-])c2)C1`: the AC50 was 2.39 µM.

Turning to `C[C@H]1CCC/C=C/[C@@H]2C[C@H](O)C[C@H]2[C@H](O)/C=C/C(=O)O1`, the AC50 was 0.948 µM and 1 µM.

In the case of `CCCCCCCCCCOC(=O)Cn1c(COc2ccc(C)cc2)[n+](C)c2ccccc21`, the AC50 is 4 µM.

For the molecule `COc1ccccc1N(CC(=O)N/N=C/c1c(O)ccc2ccccc12)S(C)(=O)=O`, the concentration at half-maximal activity (AC50) was 7.54 µM.

Turning to `CCOc1ccc(-n2c(-c3ccc(OC)cc3)c[n+]3c2CCCCC3)cc1`, the AC50 is 0.289 µM.

For the molecule `CCOC(=O)c1ccc(NC(=O)c2nc(S(=O)(=O)Cc3ccccc3)ncc2Cl)cc1`, the AC50 is 9.2 µM.

On to `N#C/C(=C/c1ccc(N2CCCCCC2)o1)c1ccc(Cl)cc1`, for which the AC50 was 24.3 µM.

In the case of `Cc1cccc2sc(NNC(=O)c3ccc(S(=O)(=O)N4CCc5ccccc5C4)cc3)nc12`, the half-maximal activity concentration (AC50) is 3.93 µM.

For `CCc1ccc2c(c1)C1(C(=O)N2)N2CCCC2C(C(=O)c2ccc3ccccc3c2)C12C(=O)Nc1ccccc12` (stereo unspecified), the AC50 is 7.76 µM.

Take `CC1CCN(c2ccc(NC(=O)c3ccc([N+](=O)[O-])o3)cc2)CC1`: the concentration at half-maximal activity (AC50) is 10.1 µM.

Take `Cn1nc(C(C)(C)C)cc1C(=O)NCc1ccc(N2CCCC2=O)cc1`: the AC50 is 5.65 µM.

As for `CCC(=O)NC(c1cc(Cl)c2cccnc2c1O)C1CC1` (stereo unspecified), the AC50 is 6.34 µM.

With `N/C(=N\OC(=O)c1cccc(Cn2cc(C(F)(F)F)ccc2=O)c1)c1ccccc1`, the AC50 is 7.71 µM.

`O=S(=O)(c1cccs1)N1CCN(CC(O)COc2cc(Cl)ccc2Cl)CC1` (stereo unspecified): the AC50 is 13.3 µM.

Turning to `CCN1CCN(Cc2ccc(NC(=O)c3cc(NC(=O)c4cnn(-c5ccccc5)c4N)cc(OC)c3)cc2C(F)(F)F)CC1`, the half-maximal activity concentration (AC50) is 15.3 µM.

For the molecule `c1ccc2c(c1)ncn2CCCOc1ccc2c(c1)CCC2`, the concentration at half-maximal activity (AC50) is 7.74 µM.

In the case of `CC(=O)N1c2ccc(S(=O)(=O)N3CCC(C(=O)N4CCN(c5cccc(C(F)(F)F)c5)CC4)CC3)cc2CC1C` (stereo unspecified), the AC50 is 5.82 µM.

Take `C/C(=N\Nc1nc2ccccc2[nH]1)c1ccccn1`: the half-maximal activity concentration (AC50) is 0.56 µM.

With `COc1cccc(C(NC(C)=O)c2ccc3cccnc3c2O)c1` (stereo unspecified), the AC50 was 3.78 µM.

With `COc1ccc2c(c1)[nH]c1c(N3CCN(Cc4ccc5c(c4)OCO5)CC3)ncnc12`, the AC50 was 3.45 µM.

For `OC(c1cc(-c2ccc(Cl)cc2)nc2ccccc12)C1CCCCN1` (stereo unspecified), the half-maximal activity concentration (AC50) was 15.1 µM.

For the molecule `C#CCOCCOCCOCCNc1nc(N2CCN(C(=O)CCCCCCCCCCNC(=O)[C@H]([C@@H](C)CC)n3cc(CCCCCN)nn3)CC2)nc(N2CCN(C(=O)CCCCCCCCCCNC(=O)[C@@H]([C@H](C)O)n3cc(C)nn3)CC2)n1`, the AC50 was 6.55 µM.

`COc1ccc2[nH]c(C(=O)N/N=C/c3ccc(O)cc3O)cc2c1`: the AC50 was 2.08 µM.

Regarding `Cc1ccccc1CS(=O)(=O)c1nnc([C@H](Cc2ccccc2)NC(=O)OC(C)(C)C)o1`, the AC50 is 13 µM.

Turning to `COc1ccccc1-n1c(-c2ccccc2)c[n+]2c1CCc1ccccc1-2`, the AC50 is 2.16 µM and 3.41 µM.

Turning to `Cc1ccccc1/C=C/C(=O)c1ccc([N+](=O)[O-])o1`, the AC50 is 5.07 µM.

Turning to `CCn1c(Cl)c(C=O)s/c1=N\S(=O)(=O)c1ccccc1`, the AC50 was 6.63 µM.

With `O=C(Nc1ccc(Cl)c(Cl)c1)Nc1nnc(CC2=CCCCC2)s1`, the AC50 is 5.75 µM.

In the case of `Cc1ccc(-c2c[n+](Cc3ccc(Cl)cc3)c3n2CCC3)cc1`, the AC50 is 7.79 µM.

`CCCCC(=O)NC(c1ccc(N(CC)CC)cc1)c1ccc2cccnc2c1O` (stereo unspecified): the AC50 is 1.37 µM.

In the case of `NS(=O)(=O)c1ccc(N/N=C/c2cn(-c3ccccc3)nc2-c2cccs2)c([N+](=O)[O-])c1`, the AC50 was 5.61 µM.

Turning to `CN1CCN(c2ccc([N+](=O)[O-])c3no[n+]([O-])c23)CC1`, the AC50 was 1.9 µM.

In the case of `Cc1noc(-c2ccc(C(F)(F)F)cc2)c1NC(=O)Nc1ccc(Cl)cc1`, the AC50 was 7.7 µM.

In the case of `COc1cccc(/C=N/NC(=O)C(=O)Nc2ccccc2OC(F)(F)C(F)F)c1O`, the AC50 is 6.44 µM.

With `CCC(Sc1nc(C)cc(C)n1)C(=O)NC1=NN=C(c2ccc(C)cc2)CS1` (stereo unspecified), the AC50 is 2.14 µM.

As to `Cc1cc(C)cc(NC(=O)/C(C#N)=C/c2cn(CC(=O)NCc3ccco3)c3ccccc23)c1`, the AC50 is 5.06 µM.

Take `CCC(CO)Oc1cc(NCc2ccc(C(C)(C)C)cc2)c2ncn(C(C)C)c2c1` (stereo unspecified): the AC50 was 2.45 µM.

Take `COc1ccc(-c2nn(-c3ccccc3)cc2/C=N/Nc2ccc3ccccc3n2)cc1OC`: the AC50 is 7.19 µM.

On to `CN(C1=C(NC(=O)c2ccccc2)C(=O)c2ccccc2C1=O)C1CCS(=O)(=O)C1` (stereo unspecified), for which the AC50 is 4.84 µM.

Regarding `Cc1ccc(C)c(-c2csc(NC(=O)C3=COCCO3)n2)c1`, the AC50 was 7.67 µM.

Regarding `CCOc1ccc(S(=O)(=O)NCc2ccncc2)cc1`, the AC50 was 1.65 µM.

As for `O=C(Nc1ccc(N2CCN(Cc3ccccc3Cl)CC2)cc1)c1cccnc1`, the AC50 was 5.98 µM.

For the molecule `O=C(N/N=C/c1cnc(N2CCCCC2)s1)c1ccc(C(F)(F)F)cc1`, the half-maximal activity concentration (AC50) is 6.66 µM.

In the case of `c1ccc(-c2nc(N3CCCCCC3)c3ccccc3n2)nc1`, the AC50 is 6.8 µM.

With `COc1ccccc1OCCCCOc1ccccc1C(C)=O`, the AC50 is 23 µM.

Turning to `COc1cccc(/C=N/Nc2cc(N3CCOCC3)ncn2)c1O`, the AC50 was 14.2 µM.

As to `COc1ccc(C2/C=C\CN(C(=O)c3ccccc3)[C@H](Cc3ccccc3)C(=O)N2Cc2ccc(F)cc2)cc1` (stereo partly specified), the AC50 is 7.75 µM.

As for `O=[N+]([O-])c1ccc(N2CCN(C(=S)NCc3ccc(Cl)cc3)CC2)cc1`, the AC50 is 10.3 µM.

Regarding `Cc1ccc(C2CC(c3ccc(C)cc3)n3nc(N)nc3N2)cc1` (stereo unspecified), the AC50 was 17.9 µM.

For `CCCCCc1ccc(-c2cn(CN3C(=O)c4ccccc4C3=O)nn2)cc1`, the AC50 is 1.23 µM.
